Laboratory results taken from US8986712B2, “Peptides derived from HIV-1 gp41 transmembrane domain for t-immunomodulation” (Yeda Research and Development Co., Ltd., priority 2009, dated 2015).
Ends that are not written are not given here.

Tests used:
[1] = system: T cells activated by PMA/ionomycin; experiment: T-cell activation induced by PMA/ionomycin; format: cell-based, mice
Protocol: (§1) For some experiments, T cells were activated with immobilized anti-CD3 antibodies (Kaleeba et al., 1998, Int. Immunol. 10, 453-461) or PMA/ionomycin as described (Wang et al., 2002 Clin. Immunol. 105, 199-207). After 72 hours, at 37° C. in a 7.5% CO2 humidified atmosphere, the T-cells were pulsed with 1 μCi (H^3) thymidine, with a specific activity of 5.0 Ci/mmol, for 7 hours, and (H^3) thymidine incorporation was measured using a 96-well plate beta-counter. The mean cpm±Standard Error was calculated for each triplicate or quadruplicate. The results of T-cell proliferation experiments are shown as the percentage of T-cell proliferation inhibition triggered by the antigen in the absence of gp41 TMD peptides.
PMA/ionomycin activates the T cell downstream of the membrane regardless of the presence or absence of the TCR.

[2] = system: T-cell line specific to MOG p35-55; experiment: T-cell proliferation induced by MOG 35-55 peptide and APC (H3-thymidine uptake); format: cell-based, mice; details: for cell survival in culture versus PBS control: T cells incubated with peptide
Protocol: T-cells were plated onto round 96-well plates in medium containing RPMI-1640 supplemented with 2.5% fetal calf serum (FCS), 100 U/ml penicillin, 100 μg/ml streptomycin, 50 μM 2β-mercaptoethanol, and 2 mM L-glutamine. 12×10^4 cells of the T-cell line specific to MOG p35-55, 5×10^5 irradiated (3000 rad) spleen cells (APC), and 10 μg/ml of MOG p35-55 were added to each well. In addition, peptides corresponding to the gp41 TMD region were added. Each determination was made at least in triplicate.
In order to exclude interaction between the examined peptides and the MOG p35-55 antigen, the MOG p35-55 antigen was initially added to the APCs in a test tube, and in a second test tube, the examined peptides were added to the T-cells. After 1 hour, the APCs and the T-cells were mixed and incubated for 72 h in a 96 well round bottom plate.
as §1
Lymph node cells were prepared from MOG 35-55/CFA immunized mice and their T cell response to the MOG 35-55 peptide was studied. T-cells were activated with the MOG 35-55 peptide and APC in the presence of gp41 TMD and TM11-19 (GLVGLRIVF; SEQ ID NO: 6) in three different concentrations (5, 25 and 50 μg/ml) and the proliferative responses was assayed. The T cell line proliferative response was determined after 3 days of incubation using a H3-thymidine uptake assay. […] The uninhibited T-cell proliferative responses were 9382±891 cpm.

[3] = system: T-cells activated with anti-CD3; experiment: T-cell activation induced by mitogenic anti-CD3 antibodies; format: cell-based, mice; details: 1 μg/ml anti-CD3 and APC; 50 μg/ml peptide
Protocol: as §1
Mitogenic anti-CD3 antibodies activate CD3 signaling regardless of the presence or absence of TCR (Keppler et al., 2006, J. Leukoc. Biol. 79, 616-627). Thus, T-cells were activated with 1 μg/ml anti-CD3 and APC in the presence of 50 μg/ml gp41 TMD or gp41 TM11-19, and the proliferative responses were assayed. The TCRα Core Peptide (GLRILLLKV; SEQ ID NO: 37; TCRα CP) served as a control peptide.

[4] = system: RAW264.7 macrophage cells; experiment: TNFα secretion from RAW264.7 macrophages (ELISA); format: cell-based; details: peptide 20 μM for 2 hours
Protocol: RAW264.7 macrophage cells were plated in a 96 well plate at a concentration of 20,000 cells per well and grown over-night in RPMI medium supplemented with 10% FBS and 1% Pen-Strep and 1% L-glutamine at 37 degrees with 5% CO2. The following day media was changed and the gp41 TMD peptide was added at a concentration of 20 μM—dissolved in DMSO and diluted 1:100. The cells were incubated in the presence of the peptide for 2 hours afterwards the media was removed and cells were washed twice with 100 μl of fresh media. Lipopolysaccharide (LPS) and Lipoteichoic acid (LTA) ligands were added for 5 hours (LPS was added at the concentration of 10 ng/ml and LTA added at 500 ng/ml; cells were grown at this time with 200 μl). After 5 hours 150 were taken for the measurement of TNFα by an ELISA kit.
RAW264.7 macrophages were grown in the presence of gp41 TMD peptides for 2 hours at a concentration of 20 μM. As controls, RAW264.7 macrophages were grown in the presence of GGG peptides or in the absence of peptides (FIG. 10, GGG and Control, respectively). Thereafter, the medium was washed twice and 500 ng/ml of LTA or 10 ng/ml of LPS was added for 5 hours. In order to evaluate TNFα levels an ELISA assay was performed. Results are shown normalized to the level of TNFα secretion induced by the ligands in the absence of peptides (FIG. 10 Control). The result is an average of three measurements.

TLR2 TMD = biological target: T1, TLR2 TMD (Homo sapiens, UniProt O60603); experiment: FRET between NBD labeled peptides and TLR2-Rho in LUVs; format: binding; details: 100 μM LUVs; peptide 0.4 μM; TLR2-Rho 0.025-0.8 μM
T1 construct: made in house; host or cells: chemical synthesis (Fmoc solid phase, Rink amide resin)
Protocol: (§2) Thin films of PC were generated after dissolving the lipids in a 2:1 (v/v) mixture of CHCL3/MeOH and drying them under a stream of nitrogen gas while rotating them. The films were lyophilized overnight, sealed with argon gas to prevent oxidation of the lipids, and stored at −20° C. Before the experiments, films were suspended in the appropriate buffer and vortexed for 1.5 min. The lipid suspension underwent five cycles of freezing-thawing and extrusion through polycarbonate membranes with 1- and 0.1-μm diameter pores to create large unilamellar vesicles.
(§3) The FRET experiments were performed by using NBD and Rho labeled peptides. Fluorescence spectra were obtained at room temperature, with excitation set at 467 nm (10-nm slit) and emission scan at 500-600 nm (10-nm slits). […] Fluorescence spectra were obtained before and after addition of the Rho labeled peptide. The fluorescence values were corrected by subtracting the corresponding blank (buffer with the same vesicles concentration). […]
The energy transfer from the association of the gp41 TMD and the TLR2 TMD peptides was measured in the presence of 100 μM LUVs. […] As a control, the energy transfer between TLR2 and TAR1p/s (MVLGVFALLPLISGSL; SEQ ID NO:39) was measured. […]

CD3 molecules = experiment: Co-localization of NBD-labeled peptides with CD3/TCR molecules in T cells (confocal fluorescence microscopy); format: cell-based, mice; details: NBD-conjugated peptide 2 μM, 1 h at 37° C., MOG35-55 T-cells
Protocol: Resting MOG35-55 T-cells or after activation for 72 h with MOG35-55 and APC were blocked with 1% BSA at room temperature to block non-specific binding. After 30 min the cells were washed and divided into aliquots containing 100,000 cells per 100 μl, and either gp41 TMD or a control membrane-binding amphipathic peptide (AMP-scr) was added (final concentration of 2 μM) for 1 h at 37° c. The cells were then washed and labeled with the tested antibody for 25 min at RT followed by biotin-conjugated anti-hamster IgG 25 min at RT and Streptavidin PE-Cy-5 10 min at RT (eBioscience San-Diego Calif., USA). Anti-hamster IgG followed by Streptavidin-Cy-5 served as a measure of non-specific binding amphipathic (AMP) peptide served as low TCR affinity control. The cells were analyzed by confocal fluorescence microscopy using Lab-Tek 8 chambers cover-glass (nunc) with living cells. The labeled cell samples were observed under a fluorescence confocal microscope. PE-Cy-5 excitation was done with HeNe laser 633 nm (emission data was collected with filter BA660IF, 660 nm long pass). NBD excitation was done with Ar laser 488 nm (emission data was collected from 505-525 nm). The co-localization percentage was quantified suing the “Simple PCI” software, and calculated as: (Co-localization fluorescence/NBD fluorescence)×100=co-localization percentage. […]

TCRα CP peptide = biological target: T2, TCRα CP peptide (Mus musculus, UniProt P01849); experiment: FRET between TCRα CP-NBD and Rho labeled peptides in PC LUV; format: binding; details: acceptor-to-lipid ratio of 1:1000
T2 construct: TCRα CP peptide was labeled with NBD, as a donor fluorophore; made in house; host or cells: chemical synthesis (Fmoc solid phase, Rink amide resin)
Protocol: as §2, §3
Further investigations were performed to reveal whether gp41 TMD interacts solely with CD3 or perhaps it interacts with the TCRα TMD. […] Then, the fluorescence energy transfer (FRET) was measured between fluorescently labeled TCRα CP-NBD peptide and gp41 TM-Rho, TCRα CP-Rho or TAR/PS-Rho. […]

T1 sequence (O60603 589-609 limits assumed): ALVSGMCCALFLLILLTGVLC

Row | Substance | inhibition of T cell activation by PMA/ionomycin [1] | cell survival in culture versus PBS control [2] | percent of energy transfer with TLR2-Rho (TLR2 TMD) | other results
1 | GLRILLLKV [TCRα CP, reference compound] | did not inhibit |  |  | 
2 | GLVGLRIVF-NH2 [TM11-19, GLVGLRIVF] |  | same survival in culture |  | 
3 | KKKLFIMIVGGLVGLRIVFAVLSIKKK [gp41 TMD] | did not inhibit | same survival in culture | over 60% | inhibition of T-cell activation by mitogenic anti-CD3 antibodies [3]: inhibited; inhibition of T-cell proliferation ([2]; MOG 35-55 peptide and APC, 5, 25 and 50 μg/ml peptide, 3 days, H3-thymidine uptake): dose dependent inhibition; TNFα secretion in response to LPS ([4]; then 10 ng/ml LPS for 5 hours): reduces TNFα secretion; TNFα secretion in response to LTA ([4]; then 500 ng/ml LTA for 5 hours): inhibits TNFα secretion; co-localization percentage with the CD3 molecules (CD3 molecules): 58.8%
4 | MVLGVFALLPLISGSL [TAR1p/s, reference compound] |  |  | no energy transfer was detected | 
5 | TCRα CP-Rho: TCRα CP peptide labeled with Rho-TAMRA as an acceptor fluorophore (GLRILLLKV-NH2; also: labeled with Rho-TAMRA, position not given here) |  |  |  | energy transfer from TCRα CP-NBD (TCRα CP peptide): ~37%
